# From patent US20230358769A1, “CLOT […] FOR QUALITY MONITORING OF PLATELET PRODUCTS” (THE GOVERNMENT OF THE UNITED STATES AS REPRESENTED BY THE …, priority 2022, published 2023)
# Where a SMILES comes first, the peptide text is derived from it. Bridges are numbered along the chain shown (N, C = ends). [ ]: non-standard residue; d: D form. hArg = N=C(N)NCCCC[C@H](N)C(=O)O; Mpa = O=C(O)CCS
# Legend:
# [1] = system: platelets in platelet rich plasma (PRP); experiment: Microplate clot retraction method (thrombin-activated platelet rich plasma, O.D. 350 nm kinetics); format: cell-based, human; conditions: for clot densification phase (phase 3) of the reaction kinetic curve: at the highest levels of inhibition
# Method: Whole blood was collected in acid citrate dextrose tubes (ACD-A; BD Vacutainer, Franklin Lakes NJ) from healthy volunteers in accordance with a U.S. Army Research and Development Command approved protocol (USAISR L-20-003). Whole blood was centrifuged at 200×g for 10 minutes and platelet rich plasma (PRP) was obtained from the upper layer. Platelet poor plasma (PPP) was recovered from the remaining volume of the ACD-A tube after centrifugation at 3,000 times gravity (×g) for 10 minutes. To obtain apheresis platelets, the Trima Accel 7 (Terumo, Lakewood, CO) system was used for collection in either autologous plasma or Isoplate (65% Isoplate, 35% plasma). Platelet concentrations were determined on an Advia® 2120i (Siemens, Malvern, PA) and adjusted to 250,000 platelets/μL with autologous PPP, unless indicated otherwise.
# Individual wells of a 96-well polystyrene microplate were coated with 150 μL of anti-adherence rinse solution (Stem Cell Technologies, Vancouver, Canada) and the microplate was centrifuged for 10 minutes at 1.300×g. The anti-adherence coating solution was aspirated and the coated wells were washed once with phosphate buffered saline. After washing, one side of each coated well was scored with an 18 Gauge (Ga) needle. Five μL of 30 U/ml thrombin (Haematologic Technologies, East Junction, VT) were added to each coated and scored well to initiate platelet aggregation, clot formation, and subsequent clot retraction.
# PRP was supplemented with 6 mM CaCl2 (Sigma, St. Louis, MO) before aliquoting 180 μL to wells that were adjacent to the thrombin-containing (reaction) wells. The transfer of PRP to adjacent (staging) wells allowed for simultaneous transfer of multiple samples to the reaction wells using a multichannel pipette. The microplate was then loaded into a Synergy™ Neo2 microplate reader, and 145 μL of re-calcified PRP were transferred from the staging well to the reaction well. The plate scan was immediately started after addition of PRP. The plate scan protocol consisted of: temperature=37° C., assay duration=30 minutes, read interval=5 seconds, kinetic absorbance wavelength=350 nm, well scan absorbance wavelength=350 nm. After the plate scan protocol was completed, the plate was discarded and the data were exported as text files.
# When indicated, the concentrations of platelets, CaCl2, or thrombin were varied to identify the optimal assay conditions for clot retraction. Additionally, PRP was pre-treated with increasing concentrations of inhibitors to platelet integrin αIIbβ3 (Eptifibatide, Sigma, St. Louis, MO), platelet-fibrin interaction (RGDS, Cayman Chemical, Ann Arbor, MI), and Src-family kinase (PP2, Sigma). Vehicle controls were the solvent used for the respective compound. Each treatment was performed in at least duplicate technical replicates.
# Text files containing the optical density (O.D.) values were imported into R v4.0.5. Parameters of Rate of Clot Formation, Rate of Clot Retraction, Maximum O.D., Retraction Coefficient, Time to Maximum O.D., and Retraction Time were derived for each sample. Algorithms to extract parameters are described in Table 2, below.
# Briefly, for Rates of Clot Formation and Retraction, a sliding window procedure was used to fit a linear model to a subset of 20 consecutive data points (k=20). The slope coefficient was extracted from each linear model and stored in an array. The Rates of Clot Formation and Retraction were defined as the maximum and minimum values, respectively, in the array. […] The data points represent donors and horizontal bars depicts medians. The Maximum and Minimum O.D. values were defined as the maximum and minimum readings, respectively. The Retraction Coefficient was defined as the difference between the Maximum and Minimum O.D. values, divided by the Maximum O.D. value. The Time to Maximum O.D. was defined as the time-point in which the Maximum O.D. value was observed. […]
# [2] = system: platelet rich plasma (PRP); experiment: Clot retraction assay in 2% Tween coated wells (optimization of assay agonist); format: cell-based, human; conditions: 0.5, 1, 2 and 4 NIH units of thrombin, n=4
# Method: Bottom halves of the individual wells in a 96-well plate were coated with 2% Tween and left in a vertical position inside a modified chamber for 90 minutes at room temperature. The coating solutions were then aspirated and allowed to air dry under the hood for 15 minutes. Whole blood collected in ACD tubes from healthy volunteers was subjected to centrifugation at 200×g for 10 minutes to obtain platelet rich plasma (PRP), followed by a second centrifugation at 3000×g for 10 minutes to obtain platelet poor plasma (PPP). When needed, platelet concentrations in the PRP were adjusted to desired levels using PPP. PRP samples (145 μL) were recalcified with 20 mM CaCl2 were then transferred into wells containing five μL of two NIH U/mLs of Thrombin. Further, the changes in absorbance during clot gelation and retraction were tracked at 350 nm using a microplate spectrophotometer for 90 minutes at 37° C.
# To evaluate the appropriate thrombin concentration for the best outcome in the assay, we tested at 0.5, 1, 2 and 4 NIH units of thrombin (n=4). Once coagulation was initiated with thrombin, the clotting kinetics were characterized by a very short lag phase of initiation, a log phase of fibrin polymerization, a fibrin densification phase of platelet mediated fibrin remodeling, and a final rapid CR phase of declining absorbance. […]
molecule,measurement,setting,value
"[Ca+2].[Cl-].[Cl-] [CaCl2, Calcium chloride]",clot formation and clot retraction at the highest CaCl2 levels,"[1]; CaCl2 concentration varied, n=5, highest levels","clot formation, but failure in clot retraction"
same,differences in parameters across CaCl2 concentrations,[1]; range of 0 to 6 mM CaCl2,No differences
N=C(N)NCCCC[C@@H]1NC(=O)CCSSC[C@@H](C(N)=O)NC(=O)[C@@H]2CCCN2C(=O)[C@H](Cc2c[nH]c3ccccc23)NC(=O)[C@H](CC(=O)O)NC(=O)CNC1=O [Eptifibatide] ([Mpa][hArg]GDWPC-NH2; disulfide 1-7),clot densification phase (phase 3) of the reaction kinetic curve,[1],absent or greatly diminished
CC(C)(C)n1nc(-c2ccc(Cl)cc2)c2c(N)ncnc21 [PP2],clot densification phase (phase 3) of the reaction kinetic curve,[1],absent or greatly diminished
C=C1[C@@H](C)[C@H]2[C@H](Cc3ccccc3)NC(=O)[C@]23[C@H](OC(C)=O)/C=C/[C@@](C)(O)C(=O)[C@@H](C)C/C=C/[C@H]3[C@@H]1O [cytochalasin D],"all parameters except Rate of Clot Formation and Maximum O.D., differences among treatment levels","[1]; cytochalasin D pretreatment, n=5, p<0.001",significant differences
same,dose dependence of the differences among conditions,"[1]; cytochalasin D pretreatment, greatest departure from vehicle at highest concentrations",followed the dosing level
Arg-Gly-Asp-Ser (RGDS; printed: Arg-Gly-Asp-Ser),clot densification phase (phase 3) of the reaction kinetic curve,[1],absent or greatly diminished
thrombin,effect of thrombin concentration on the method's results,"[1]; thrombin concentration varied, n=5",significantly affected the method's results in a concentration dependent manner
same,CR at 60 minutes after clot initiation,[2],100%
